Experimental data from patent US20210323929A1, “Purified Detomidine, Process of Preparing and Methods of Use” (Clexio Biosciences Ltd., priority 2018, published 2021).
Where two headings read alike, the source gives them in different places.

Legend:
Type in all cases: physicochemical
[1] = Hydration study by DVS analysis (hydration-dehydration cycles versus relative humidity)
Description: Melting points (m.p.) of the intermediate detomidine free base and hydrochloride of Sample 5 measured in open capillary corresponded with the published literature and the DSC data and are presented in Table 5. In order to evaluate effect of humidity on different forms of detomidine, a hydration study was performed. Samples of detomidine free base and hydrochloride salt were subjected to DVS analysis. These observations are in accordance with the DVS results shown in FIGS. 5 and 6, for detomidine free base and detomidine HCl, respectively.
During the dehydration cycle, the monohydrate began to lose water at RH˜10% and converted into the anhydrate at RH=0%.
At the same time, the anhydrous form is not stable in atmospheric air and absorbs water at RH=30-50%.

[2] = Re-slurry in water: conversion of the solid form without complete dissolution; conditions: contact with water for 24 hrs, re-slurry at 24° C.
[3] = Solid form stability of the vacuum dried anhydrate, hermetically closed or exposed to atmospheric air
Description: The same monohydrate dried at elevated temperature (30-40 mbar 90° C.) converted completely into the anhydrous form.

[4] = Solubility in water (observation on the solid forms)

For `Cc1cccc(Cc2c[nH]cn2)c1C` [Sample 2], the “water level after absorption, cKF” value ([1]; anhydrous detomidine HCl after hydration) was 7.7%.

For `Cc1cccc(Cc2c[nH]cn2)c1C` [monohydrate], the “absorption of additional water on increase of humidity” value ([1]; RH 70% to RH>90%) was “did not lead to absorption of additional water”, the “RH at which the monohydrate began to lose water” value ([1]; dehydration cycle) was roughly 10% and the “RH at which the monohydrate converted into the anhydrate” value ([1]; dehydration cycle) was 0%.

For `Cc1cccc(Cc2c[nH]cn2)c1C` [anhydrous form], the “form conversion on contact with water” value [2] was “completely converted”, the “water uptake and form conversion after exposure to atmospheric air” value ([3]; after exposure to atmospheric air) was “absorbed water and converted to a mixture of anhydrate and monohydrate” and the “water uptake and form conversion, hermetically closed” value ([3]; vacuum dried, hermetically closed) was “did not absorb water from the atmosphere and did not convert into the monohydrate”. The “stability in atmospheric air” value ([1]; atmospheric air) was “not stable”, the “RH at which the anhydrate absorbs water / transforms completely into the monohydrate” value ([1]; hydration cycle) was 30-50% and the “RH at which the anhydrate did not absorb water” value ([1]; hydration cycle) was less than 30%.

In the case of `Cc1cccc(Cc2c[nH]cn2)c1C.Cl` [detomidine hydrochloride], the solubility in water ([4]; water, hydrochloride formed with aqueous HCl) is reported as “soluble” and the “reproducibility of anhydrate-monohydrate interconversion” value ([1]; four cycles of hydration-dehydration) is reported as “good reproducibility”.

With `Cc1cccc(Cc2c[nH]cn2)c1C` [detomidine free base, 4-[(2,3-dimethylphenyl)methyl]-1H-imidazole] the solubility in water [4] was “insoluble in water”, the hygroscopicity ([1]; DVS, 24.4° C. (FIG. 5)) was “non-hygroscopic” and the water absorbed ([1]; at relative humidity (RH)>50%) was “more than 1%”.
